Literature values, collected in PMC5643362 (Acta Diabetologica, 2017).

What was measured:
[1] = tested on: neural endopeptidase
[2] = tested on: dipeptidyl peptidase IV

Resistance to neural endopeptidase [1]: resistant
Resistance to dipeptidyl peptidase IV [2]: resistant
Substance: Exendin-4
